Test results published in patent US9975900B2, “Substituted imidazo[1,2-α]pyrazines for treating spinal muscular atrophy” (Hoffmann-La Roche Inc., priority 2014, dated 2018).
Where a name gives a salt, the structure may show the parent alone.

How the values were obtained:
[1] = system: full length SMN2 minigene mRNA (HEK293H cells stably transfected with the SMN2-A minigene construct); assay: RT-qPCR assay for SMN2 minigene pre-mRNA splicing in cultured cells; format: cell-based; conditions: Homo sapiens, HEK293-H, 24 hours, 7-point concentration curve, concentration giving 1.5-fold FL SMN2mini mRNA vs vehicle, read-out: EC1.5x minigene (EC1.5x concentration for production of full length SMN2 minigene mRNA)
Procedure: The reverse transcription-quantitative PCR-based (RT-qPCR) assay is used to quantify the level of the full length SMN2 minigene (referred to herein by the term “FL SMN2mini”) mRNA containing SMN2 exon 7 in a HEK293H cell line stably transfected with said minigene and treated with a test compound. Materials used and respective sources are listed below in Table 1.
The SMN2-A minigene construct was prepared as described in International Patent Application WO2009/151546A1 page 145 paragraph [00400] to page 147 paragraph [00412] (incl. FIG. 1 and FIG. 3 therein).
HEK293H cells stably transfected with the SMN2-A minigene construct (10,000 cells/well) are seeded in 200 μL of cell culture medium (DMEM plus 10% FBS, with 200 μg/mL hygromycin) in 96-well flat-bottom plates and the plate is immediately swirled to ensure proper dispersal of cells and the formation of an even monolayer of cells. Cells are allowed to attach for 6 hours. Test compounds are serially diluted 3.16-fold in 100% DMSO to generate a 7-point concentration curve. A solution of test compound (1 μL, 200× in DMSO) is added to each cell-containing well and the plate is incubated for 24 hours in a cell culture incubator (37° C., 5% CO2, 100% relative humidity). 2 replicates are prepared for each test compound concentration. The cells are then lysed in the Cells-To-Ct lysis buffer and the lysate is stored at −80° C.
Full length SMN2-A minigene and GAPDH mRNA are quantified using the primers and probes referenced in Table 2. Primer SMN Forward A (SEQ ID NO.1) hybridizes to a nucleotide sequence in exon 7 (nucleotide 22 to nucleotide 40), primer SMN Reverse A (SEQ ID NO.2) hybridizes to a nucleotide sequence in the coding sequence of Firefly luciferase, SMN Probe A (SEQ ID NO.3) hybridizes to a nucleotide sequence in exon 7 (nucleotide 50 to nucleotide 54) and exon 8 (nucleotide 1 to nucleotide 21). The combination of these three oligonucleotides detects only SMN1 or SMN2 minigenes (RT-qPCR) and will not detect endogenous SMN1 or SMN2 genes.
The SMN forward and reverse primers are used at final concentrations of 0.4 μM. The SMN probe is used at a final concentration of 0.15 μM. The GAPDH primers are used at final concentrations of 0.2 μM and the probe at 0.15 μM.
The SMN2-minigene GAPDH mix (15 μL total volume) is prepared by combining 7.5 of 2×RT-PCR buffer, 0.4 μL of 25×RT-PCR enzyme mix, 0.75 μL of 20× GAPDH primer-probe mix, […] of water, 2 μL of 10-fold diluted cell lysate, 0.06 μL of 100 μM SMN forward primer, 0.06 μL of 100 μM SMN reverse primer, and 0.225 μL of 100 μM SMN probe.
PCR is carried out at the following temperatures for the indicated time: Step 1: 48° C. (15 min); Step 2: 95° C. (10 min); Step 3: 95° C. (15 sec); Step 4: 60° C. (1 min); then repeat Steps 3 and 4 for a total of 40 cycles.
Each reaction mixture contains both SMN2-A minigene and GAPDH primers/probe sets (multiplex design), allowing simultaneous measurement of the levels of two transcripts.
The increase in the abundance of the FL SMN2mini mRNA relative to that in cells treated with vehicle control is determined from real-time PCR data using a modified ΔΔCt method (as described in Livak and Schmittgen, Methods, 2001, 25:402-8). The amplification efficiency E is calculated from the slope of the amplification curve for FL SMN2mini and GAPDH individually. The abundance of FL SMN2mini and GAPDH mRNA are then calculated as (1+E)^−Ct, where Ct is the threshold value for each amplicon. The abundance of FL SMN2mini mRNA is normalized to GAPDH mRNA abundance. The normalized FL SMN2mini mRNA abundance from test compound-treated samples is then divided by normalized FL SMN2mini mRNA abundance from vehicle-treated cells to determine the level of FL SMN2mini mRNA relative to vehicle control. […]

[2] = system: SMN protein in SMA patient fibroblast cells (GM03813); assay: SMN protein assay (HTRF) in cultured cells; format: cell-based; conditions: Homo sapiens, SMA Type 1 patient fibroblasts, 48 hours; for EC (1.5-fold): 7-point concentration curve, concentration giving 1.5 times SMN protein vs vehicle, read-out: EC1.5x SMN protein (EC1.5x concentration for SMN protein expression); for maximal fold induction: fold increase relative to vehicle control, read-out: Max. fold increase of SMN protein
Procedure: The SMN HTRF (homogeneous time resolved fluorescence) assay is used to quantify the level of SMN protein in SMA patient fibroblast cells treated with test compounds. Materials used and respective sources are listed below in Table 4.
Cells are thawed and cultured in DMEM-10% FBS for 72 hours. Cells are trypsinized, counted and re-suspended to a concentration of 25,000 cells/mL in DMEM-10% FBS. The cell suspensions are plated at 5,000 cells per well in a 96 well microtiter plate and incubated for 3 to 5 hours. Test compounds are serially diluted 3.16-fold in 100% DMSO to generate a 7-point concentration curve. 1 μL of test compound solution is transferred to cell-containing wells and cells are incubated for 48 hours in a cell culture incubator (37° C., 5% CO2, 100% relative humidity). Triplicate samples are set up for each test compound concentration. After 48 hours, the supernatant is removed from the wells and 25 μL of the RIPA lysis buffer, containing protease inhibitors, is added to the wells and incubated with shaking at room temperature for 1 hour. 25 μL of the diluent is added and then 35 μL of the resulting lysate is transferred to a 384-well plate, where each well contains 5 μL of the antibody solution (1:100 dilution of anti-SMN d2 and anti-SMN cryptate in SMN reconstitution buffer). The plate is centrifuged for 1 minute to bring the solution to the bottom of the wells, then incubated overnight at room temperature. Fluorescence for each well of the plate at 665 nm and 620 nm is measured on an EnVision multilabel plate reader (Perkin-Elmer).
The normalized fluorescence signal is calculated for each sample, Blank and vehicle control well by dividing the signal at 665 nm by the signal at 620 nm. Normalizing the signal accounts for possible fluorescence quenching due to the matrix effect of the lysate. The ΔF value (a measurement of SMN protein abundance as a percent value) for each sample well is calculated by subtracting the normalized average fluorescence for the Blank control wells from the normalized fluorescence for each sample well, then dividing this difference by the normalized average fluorescence for the Blank control wells and multiplying the resulting value by 100. The ΔF value for each sample well represents the SMN protein abundance from test compound-treated samples. The ΔF value for each sample well is divided by the ΔF value for the vehicle control wells to calculate the fold increase in SMN protein abundance relative to the vehicle control. Table 5 provides EC1.5× concentrations for SMN protein expression that was obtained from the 7-point concentration data generated according to the above procedure for particular compounds of the present invention.
Table 6 provides the maximum fold increase of SMN protein that was obtained from the 7-point concentration data generated according to the above procedure for particular compounds of the present invention

CCc1nc(NC(=O)c2ccc(N3CCN4CCC[C@H]4C3)cc2F)cn2cc(C)nc12 [Example 16, 4-[(8aS)-3,4,6,7,8,8a-hexahydro-1H-pyrrolo[1,2-a]pyrazin-2-yl]-N-(8-ethyl-2-methylimidazo[1,2-a]pyrazin-6-yl)-2-fluorobenzamide]
EC (1.5-fold) [1]: 0.0314 µM
EC (1.5-fold) [2]: 0.237 µM
maximal fold induction [2]: 1.72

Cc1cn2cc(NC(=O)c3ccc(N4CCN5CCC[C@H]5C4)cc3F)nc(C3CC3)c2n1 [Example 17, 4-[(8aS)-3,4,6,7,8,8a-hexahydro-1H-pyrrolo[1,2-a]pyrazin-2-yl]-N-(8-cyclopropyl-2-methylimidazo[1,2-a]pyrazin-6-yl)-2-fluorobenzamide]
EC (1.5-fold) [1]: 0.0338 µM
EC (1.5-fold) [2]: 1.7 µM
maximal fold induction [2]: 1.51

Cc1cn2cc(NC(=O)c3c(F)cc(N4CCN5CCC[C@H]5C4)cc3F)nc(C)c2n1 [Example 18, 4-[(8aS)-3,4,6,7,8,8a-hexahydro-1H-pyrrolo[1,2-a]pyrazin-2-yl]-N-(2,8-dimethylimidazo[1,2-a]pyrazin-6-yl)-2,6-difluorobenzamide]
EC (1.5-fold) [1]: 0.0234 µM
EC (1.5-fold) [2]: 0.117 µM
maximal fold induction [2]: 1.75

Cc1cn2cc(NC(=O)c3ccc(N4C[C@@H](C)N[C@@H](C)C4)cc3F)nc(C)c2n1 [Example 19, N-(2,8-dimethylimidazo[1,2-a]pyrazin-6-yl)-4-[(3R,5S)-3,5-dimethylpiperazin-1-yl]-2-fluorobenzamide]
EC (1.5-fold) [1]: 0.003 µM
EC (1.5-fold) [2]: 0.0274 µM
maximal fold induction [2]: 1.71

Cc1cn2cc(NC(=O)c3ccc(N4CC[C@H](N5CCCC5)C4)cc3F)nc(C)c2n1 [Example 20, N-(2,8-dimethylimidazo[1,2-a]pyrazin-6-yl)-2-fluoro-4-[(3S)-3-pyrrolidin-1-ylpyrrolidin-1-yl]benzamide]
EC (1.5-fold) [1]: 0.023 µM
EC (1.5-fold) [2]: 0.101 µM
maximal fold induction [2]: 1.7

CCc1nc(NC(=O)c2ccc(N3CCN[C@H](C)C3)cc2F)cn2cc(C)nc12 [Example 21, N-(8-ethyl-2-methylimidazo[1,2-a]pyrazin-6-yl)-2-fluoro-4-[(3R)-3-methylpiperazin-1-yl]benzamide hydrochloride]
EC (1.5-fold) [1]: 0.0204 µM
EC (1.5-fold) [2]: 0.162 µM
maximal fold induction [2]: 1.8

Cc1cn2cc(NC(=O)c3ccc(N4CCN5CCC[C@@H]5C4)cc3F)nc(C3CC3)c2n1 [Example 22, 4-[(8aR)-3,4,6,7,8,8a-hexahydro-1H-pyrrolo[1,2-a]pyrazin-2-yl]-N-(8-cyclopropyl-2-methylimidazo[1,2-a]pyrazin-6-yl)-2-fluorobenzamide]
EC (1.5-fold) [1]: 0.0952 µM
EC (1.5-fold) [2]: 0.66 µM
maximal fold induction [2]: 1.5

Cc1cn2cc(NC(=O)c3ccc(N4CCN[C@H](C)C4)cc3F)nc(C3CC3)c2n1 [Example 23, N-(8-cyclopropyl-2-methylimidazo[1,2-a]pyrazin-6-yl)-2-fluoro-4-[(3R)-3-methylpiperazin-1-yl]benzamide hydrochloride]
EC (1.5-fold) [1]: 0.0268 µM
EC (1.5-fold) [2]: 0.0622 µM
maximal fold induction [2]: 1.72

Cc1cn2cc(NC(=O)c3ccc(N4CC[C@H](N5CCCC5)C4)cc3F)ncc2n1 [Example 24, 2-fluoro-N-(2-methylimidazo[1,2-a]pyrazin-6-yl)-4-[(3S)-3-pyrrolidin-1-ylpyrrolidin-1-yl]benzamide]
EC (1.5-fold) [1]: 0.051 µM
EC (1.5-fold) [2]: 0.113 µM
maximal fold induction [2]: 1.75

Cc1cn2cc(NC(=O)c3ccc(N4CCN[C@H](C)C4)cc3F)ncc2n1 [Example 25, 2-fluoro-N-(2-methylimidazo[1,2-a]pyrazin-6-yl)-4-[(3R)-3-methylpiperazin-1-yl]benzamide hydrochloride]
EC (1.5-fold) [1]: 0.0146 µM
EC (1.5-fold) [2]: 0.123 µM
maximal fold induction [2]: 1.88

Cc1cn2cc(NC(=O)c3ccc(N4CCNC5(CC5)C4)cc3F)ncc2n1 [Example 26, 4-(4,7-diazaspiro[2.5]octan-7-yl)-2-fluoro-N-(2-methylimidazo[1,2-a]pyrazin-6-yl)benzamide hydrochloride]
EC (1.5-fold) [1]: 0.0596 µM
EC (1.5-fold) [2]: 1.61 µM
maximal fold induction [2]: 1.57

Cc1cn2cc(NC(=O)c3ccc(N4C[C@@H](C)N[C@@H](C)C4)cc3F)ncc2n1 [Example 27, 4-[(3S,5R)-3,5-dimethylpiperazin-1-yl]-2-fluoro-N-(2-methylimidazo[1,2-a]pyrazin-6-yl)benzamide]
EC (1.5-fold) [1]: 0.0167 µM
EC (1.5-fold) [2]: 1.52 µM
maximal fold induction [2]: 1.85

Cc1cn2cc(NC(=O)c3c(F)cc(N4CCNCC4)cc3Cl)ncc2n1 [Example 28, 2-chloro-6-fluoro-N-(2-methylimidazo[1,2-a]pyrazin-6-yl)-4-piperazin-1-ylbenzamide hydrochloride]
EC (1.5-fold) [1]: 2.03 µM
EC (1.5-fold) [2]: 8.76 µM
maximal fold induction [2]: 1.65

Cc1cn2cc(NC(=O)c3cc(F)c(N4CCNC(C)C4)cc3F)ncc2n1 (stereo not drawn) [Example 29, 2,5-difluoro-N-(2-methylimidazo[1,2-a]pyrazin-6-yl)-4-(3-methylpiperazin-1-yl)benzamide hydrochloride]
EC (1.5-fold) [1]: 0.0852 µM
EC (1.5-fold) [2]: 0.495 µM
maximal fold induction [2]: 1.91
